{"source": "patent US4990499A", "about": "“Anti-herpes simplex virus activity of 5-alkoxymethyl-2'-deoxycytidimes and their 5-monophosphates” (priority 1989, dated 1991)", "key": {"[1]": {"tested_on": "Deoxynucleoside Triphosphate (dNTP) Pools in Vero Cells Infected with Herpes Simplex Virus Type 1", "test": "Deoxynucleoside triphosphate (dNTP) pools in HSV-1 infected Vero cells", "type": "cell-based", "settings": "Table 10, HSV-infected", "method": "Example 9 was repeated, except that the Vero cells subjected to the treatment had all been infected with HSV-1 KOS strain prior to the treatment.\n^a Cells were infected with 10 PFU/cell of HSV1 KOS strain for one\nhour. Treatments were given for seven hours.\n^a Cells were infected with 10 PFU/cell of HSV1, KOS strain after\n^b H4 dUrd in MEM was added immediately after adsorption and\n^c H4 dUrd in MEM was added immediately after adsorption and\n(§1) Vero cells and HSV-infected Vero cells were treated with dGUO and dGUO and H4 dUrd. The cells were then assayed for the presence of deoxynucleoside triphosphates. Untreated Vero cells were also assayed for the presence of deoxynucleoside triphophate to provide a control.\n^c Cells were infected with 10 PFU/cell of HSV1 strain KOS for one"}, "[2]": {"test": "Survival and viability of Vero cells", "settings": "monkey, vero cells", "description": "(§2) The survival and viability of Vero cells grown in the presence of 2'-deoxyguanosine, H4 dUrd and deoxyguanosine+H4 dUrd was determined."}, "[3]": {"tested_on": "Vero cells", "test": "Survival and viability of Vero cells", "settings": "up to 250 μM, rapidly dividing Vero cells", "description": "as §2"}, "[4]": {"tested_on": "Herpes simplex virus type 1 (HSV-1)", "test": "Antiviral activity against HSV-1, viral plaque reduction (ED50)", "type": "cell-based", "settings": "FIG. 13; HSV-1 KOS and 76, Vero, 20 PFU"}, "[5]": {"tested_on": "Deoxynucleoside Triphosphate (dNTP) Pools in Uninfected Vero Cells", "test": "Deoxynucleoside triphosphate (dNTP) pools in uninfected (mock-infected) Vero cells", "type": "cell-based", "settings": "Table 10, uninfected", "method": "Vero cells were treated with MMdCyd, H4 dUrd and MMdCyd+H4 dUrd. The cells were then assayed for the presence of deoxynucleoside triphosphates. Untreated Vero cells were also assayed for the presence of deoxynucleoside triphosphates, to provide a control.\n^a Cells were mock infected for one hour. Different treatments were\n^b Values are means of at least two assays of triplicate cell\nas §1\nVero cells were treated with N-methyl-MMdCyd. The cells were then assayed for dNTP pools."}, "[6]": {"tested_on": "Herpes simplex virus type 1 (HSV-1)", "test": "Antiviral activity against HSV-1, viral plaque reduction (ED50)", "type": "cell-based", "settings": "FIG. 13; deoxyguanosine with MMdCyd", "method": "Infected cells were treated with different concentrations of MMdCyd and the concentration required to reduce viral plaque formation by 50%, i.e. ED50, was determined.\n^a ED50 : Concentration required to reduce viral plaque formatio\nVero cells were infected with the KOS strain of HSV-1. The compound of compounds indicated in Table 2, below, and are shown graphically in FIGS. 1, (H4 dUrd) and 2 (H4 Urd).\n^a Antiviral assays were carried out using Vero cells. All compounds\nwere added immediately after virus infection.\nThe antiviral activity of MMdCyd in the presence of H4 dUrd was determined against several strains of HSV-1 and HSV-2.\nVero cells were infected with HSV-1, strain 76 and treated with MMdCyd at different times post virus infection.\nThe antiviral activity, ^a cyctotoxicity* and antiviral indices of MMdCyd in the presence of H4 dUrd, dGuo and H4 dUrd+dGuo were determined.\n^a Antiviral assays were carried out using Vero cells. Compounds were\nadded immediately after virus infection. Virus HSV1, strains KOS and 76;\nKOS, virus input = 50 PFU"}}, "data": [{"smiles": "Nc1nc2c(ncn2[C@H]2C[C@H](O)[C@@H](CO)O2)c(=O)[nH]1", "note": "[dGuo, 2'-deoxyguanosine]", "values": [{"measurement": "dATP pool", "setting": "[1]; dGUO 25 μM", "result": "12 .rho.moles/10^6 cells"}, {"measurement": "dCTP pool", "setting": "[1]; dGUO 25 μM", "result": "23 .rho.moles/10^6 cells"}, {"measurement": "dGTP pool", "setting": "[1]; dGUO 25 μM", "result": "290 .rho.moles/10^6 cells"}, {"measurement": "dTTP pool", "setting": "[1]; dGUO 25 μM", "result": "110 .rho.moles/10^6 cells"}, {"measurement": "dATP pool", "setting": "[1]; dGUO 50 μM", "result": "12 .rho.moles/10^6 cells"}, {"measurement": "dCTP pool", "setting": "[1]; dGUO 50 μM", "result": "33 .rho.moles/10^6 cells"}, {"measurement": "dGTP pool", "setting": "[1]; dGUO 50 μM", "result": "373 .rho.moles/10^6 cells"}, {"measurement": "dTTP pool", "setting": "[1]; dGUO 50 μM", "result": "118 .rho.moles/10^6 cells"}, {"measurement": "dATP pool", "setting": "[1]; dGUO 100 μM", "result": "12 .rho.moles/10^6 cells"}, {"measurement": "dCTP pool", "setting": "[1]; dGUO 100 μM", "result": "64 .rho.moles/10^6 cells"}, {"measurement": "dGTP pool", "setting": "[1]; dGUO 100 μM", "result": "600 .rho.moles/10^6 cells"}, {"measurement": "dTTP pool", "setting": "[1]; dGUO 100 μM", "result": "214 .rho.moles/10^6 cells"}, {"measurement": "dATP pool", "setting": "[1]; dGUO 250 μM", "result": "14 .rho.moles/10^6 cells"}, {"measurement": "dCTP pool", "setting": "[1]; dGUO 250 μM", "result": "78 .rho.moles/10^6 cells"}, {"measurement": "dGTP pool", "setting": "[1]; dGUO 250 μM", "result": "558 .rho.moles/10^6 cells"}, {"measurement": "dTTP pool", "setting": "[1]; dGUO 250 μM", "result": "233 .rho.moles/10^6 cells"}, {"measurement": "dATP pool", "setting": "[1]; dGUO 500 μM", "result": "25 .rho.moles/10^6 cells"}, {"measurement": "dCTP pool", "setting": "[1]; dGUO 500 μM", "result": "60 .rho.moles/10^6 cells"}, {"measurement": "dGTP pool", "setting": "[1]; dGUO 500 μM", "result": "738 .rho.moles/10^6 cells"}, {"measurement": "dTTP pool", "setting": "[1]; dGUO 500 μM", "result": "247 .rho.moles/10^6 cells"}, {"measurement": "viability at 25 µM", "setting": "[2]", "result": 100, "unit": "%"}, {"measurement": "viability at 50 µM", "setting": "[2]", "result": 100, "unit": "%"}, {"measurement": "viability at 100 µM", "setting": "[2]", "result": 100, "unit": "%"}, {"measurement": "viability at 250 µM", "setting": "[2]", "result": 100, "unit": "%"}, {"measurement": "viability at 500 µM", "setting": "[2]", "result": 88, "unit": "%"}, {"measurement": "viability at 1000 µM", "setting": "[2]", "result": 63, "unit": "%"}, {"measurement": "cytotoxicity", "setting": "[3]", "result": "devoid of cytotoxicity"}, {"measurement": "effect on antiviral activity of MMdCyd", "setting": "[4]", "result": "markedly potentiated"}, {"measurement": "dATP pool", "setting": "[5]; dGUO 25 μM", "result": "18 .rho.moles/10^6 cells"}, {"measurement": "dCTP pool", "setting": "[5]; dGUO 25 μM", "result": "13 .rho.moles/10^6 cells"}, {"measurement": "dGTP pool", "setting": "[5]; dGUO 25 μM", "result": "42 .rho.moles/10^6 cells"}, {"measurement": "dTTP pool", "setting": "[5]; dGUO 25 μM", "result": "17 .rho.moles/10^6 cells"}, {"measurement": "dATP pool", "setting": "[5]; dGUO 50 μM", "result": "19 .rho.moles/10^6 cells"}, {"measurement": "dCTP pool", "setting": "[5]; dGUO 50 μM", "result": "9 .rho.moles/10^6 cells"}, {"measurement": "dGTP pool", "setting": "[5]; dGUO 50 μM", "result": "88 .rho.moles/10^6 cells"}, {"measurement": "dTTP pool", "setting": "[5]; dGUO 50 μM", "result": "10 .rho.moles/10^6 cells"}, {"measurement": "dATP pool", "setting": "[5]; dGUO 100 μM", "result": "19 .rho.moles/10^6 cells"}, {"measurement": "dCTP pool", "setting": "[5]; dGUO 100 μM", "result": "11 .rho.moles/10^6 cells"}, {"measurement": "dGTP pool", "setting": "[5]; dGUO 100 μM", "result": "76 .rho.moles/10^6 cells"}, {"measurement": "dTTP pool", "setting": "[5]; dGUO 100 μM", "result": "13 .rho.moles/10^6 cells"}, {"measurement": "dATP pool", "setting": "[5]; dGUO 250 μM", "result": "29 .rho.moles/10^6 cells"}, {"measurement": "dCTP pool", "setting": "[5]; dGUO 250 μM", "result": "8 .rho.moles/10^6 cells"}, {"measurement": "dGTP pool", "setting": "[5]; dGUO 250 μM", "result": "102 .rho.moles/10^6 cells"}, {"measurement": "dTTP pool", "setting": "[5]; dGUO 250 μM", "result": "13 .rho.moles/10^6 cells"}, {"measurement": "dATP pool", "setting": "[5]; dGUO 500 μM", "result": "19 .rho.moles/10^6 cells"}, {"measurement": "dCTP pool", "setting": "[5]; dGUO 500 μM", "result": "7 .rho.moles/10^6 cells"}, {"measurement": "dGTP pool", "setting": "[5]; dGUO 500 μM", "result": "146 .rho.moles/10^6 cells"}, {"measurement": "dTTP pool", "setting": "[5]; dGUO 500 μM", "result": "6 .rho.moles/10^6 cells"}, {"measurement": "concentration giving maximal increase in antiherpes activity of MMdCyd", "setting": "[6]", "result": 100, "unit": "µM"}]}]}
